Counter-ions that a name gives are not always drawn.
Test system: cancer cells in the urine (urothelial / bladder cancer)
Assay: Detection of PPIX fluorescence in cells of urine collected after oral ALA hydrochloride (fluorescence microscopy of urinary sediment)
Type: in vivo, human
Conditions: 1 g ALA hydrochloride oral in 50 ml orange juice; patient suspected of bladder cancer (about 60 kg); urine collected after about 4 hours; FIG. 1
Protocol: 1 g of ALA hydrochloride was dissolved in 50 ml of orange juice, and was given to a patient suspected of having bladder cancer (body weight about 60 kg). Urine was collected after about 4 hours, which was immediately centrifuged (3000 rpm/min., 15 min.) in a light shielded state, and was confirmed by microscopic visualization using sediments. The microscope used was OLYMPUS BX50CCD mounted with camera OLYMPUS DP70. The mirror set was Exciter: XF1076 400AF30 Dichroic:XF2007 475DCLP, Emitter: XF3090 585ALP (OMEGA OPTICAL), all of which being a standard fluorescence microscope system.
The detection method was performed in the same way as Example 1, except that the dosage amount was changed to 500 mg, which is the half amount of Example 1.

NCC(=O)CCC(=O)O [ALA hydrochloride, 5-aminolevulinic acid]
PPIX fluorescence in cells separated from the urine: a clear PPIX fluorescence derived from cancer cell was observed
